Measured values from PMC8538057, “Direct Delivery of ANA-TA9, a Peptide Capable of Aβ Hydrolysis, to the Brain by Intranasal Administration” (Pharmaceutics, 2021).
Ends that are not written are not given here.

What was measured:
[1] = Disposition and nasal absorption of ANA-TA9 in rats (plasma pharmacokinetics after i.v. bolus, i.v. infusion and i.n. administration); assay type: in vivo, Male Wistar/ST rats; conditions: rat
Protocol: For i.n. administration, ANA-TA9 was dissolved in PBS at a concentration of 100 mg/mL. For intravenous (i.v.) administration, the nasal solution was diluted to 10 mg/mL with PBS. For i.v. infusion, ANA-TA9 was dissolved in PBS to a concentration of 12 mg/mL. The rats were anesthetized through i.p. administration of a mixture of medetomidine (0.15 mg/kg body weight), midazolam (2 mg/kg body weight), and butorphanol (2.5 mg/kg body weight). The right femoral artery was cannulated with polyethylene tubing. ANA-TA9 was injected into the left femoral vein of 3 rats at a dose of 2 mg (200 μL of a 10 mg/mL PBS solution). Those 3 rats nasally received the same dose of ANA-TA9 (20 μL of a 100 mg/mL PBS solution) under anesthesia. For nasal administration, a micropipette was used. After i.n. administration, the animals were kept conscious in a rat cage ([…], Tokyo, Japan) throughout the experiment after recovery from anesthesia. The PBS solution of ANA-TA9 (12 mg/mL) was infused intravenously for 10 min at a 25 μL/min flow rate. The infused dose was 3 mg/rat. At the appropriate time intervals after administration, blood samples were taken, heparinized, and immediately cooled down on ice, followed by centrifugation at 15,000 rpm for 5 min to obtain the plasma. The plasma samples were stored at -40 °C until the assay. In the preliminary study, it was confirmed that ANA-TA9 stored at -40 °C is stable for at least 2 weeks. The plasma and brain concentrations of ANA-TA9 were determined by LC/MS, LC-20A, and LCMS-2020 (SHIMADZU, Kyoto, Japan). Briefly, 100 μL of the plasma were mixed with 1000 μL of methanol. […] To the dissected brain tissue, 100 μL of ice-cold purified water were added, and the mixture was homogenized under ice-cold conditions. To the homogenate, 4000 μL of ice-cold methanol were added. […] The residues were reconstituted with 100 μL of the mobile phase of the chromatography. In the preliminary study, it was confirmed that the effect of rapid degradation of ANA-TA9 on the assay could be excluded by the treatment on the blood and brain tissues mentioned above. Chromatographic separation was performed using a C18 analytical column (TSKgel ODS 100V, 3 μm, 2.0 mm × 100 mm; TOSOH, Tokyo, Japan). The mobile phase was acetonitrile/0.1% acetic acid (10/90), and the flow rate was 0.2 mL/min. ANA-TA9 eluting from the column was detected with mass spectrometry under the positive mode. Nitrogen gas was used for nebulization at a flow rate of 1.5 L/min. Other conditions (temperature and voltage) were set as the default. The calibration curves of ANA-TA9 in the plasma and the brain were determined. […] The area under the plasma concentration-time profile (AUC) after i.v. and i.n. administration was obtained based on the linear trapezoidal rules. In the case of the i.n. application, the concentrations of the last three samples were extrapolated to estimate the area after the last sampling time. The dose was divided by the AUC to obtain the clearance. After normalization of the AUC with each dose, the bioavailability was calculated by the division of the normalized i.n. AUC by the normalized AUC after i.v. infusion.

[2] = In vitro stability in the whole blood; assay type: in vitro ADME, rat
Protocol: After the anesthetization of rats with an i.p. application of the anesthetic mixture, the cerebrospinal fluid (CSF) was collected by cisternal puncture, followed by the collection of whole blood from the polyethylene cannula inserted into the right femoral artery. The blood was heparinized and centrifuged at 15,000 rpm for 10 min at 4 °C, and the supernatant was collected as plasma.
ANA-TA9 was dissolved in PBS at a concentration of 0.1 mg/mL or 1 mg/mL. Immediately before the incubation, 5 μL or 10 μL of the ANA-TA9 solution was added to 45 μL or 90 μL of CSF or plasma, respectively. Similarly, 10 μL of the ANA-TA9 solution was added to 90 μL of whole blood. At predetermined times after the incubation at 37 °C, the samples were cooled by placing them on ice. Methanol (1 mL) was added to the plasma and whole blood for deproteinization. The mixtures were then vortexed and centrifuged at 15,000 rpm for 5 min at 4 °C. The supernatant was transferred to tubes and evaporated to dryness. The residue was reconstituted with 100 μL of the mobile phase of LC/MS mentioned below. The concentrations of ANA-TA9 in the plasma and whole blood were measured by LC/MS. The ANA-TA9 concentrations were measured in the CSF samples by LC/MS without any treatments.
Chromatographic separation was performed using a C18 analytical column (TSKgel ODS 100V, 3 μm, 2.0 mm × 100 mm; TOSOH, Tokyo, Japan). The mobile phase was acetonitrile/0.1% acetic acid (10/90), and the flow rate was 0.2 mL/min. ANA-TA9 eluting from the column was detected with mass spectrometry under the positive mode. Nitrogen gas was used for nebulization at a flow rate of 1.5 L/min. Other conditions (temperature and voltage) were set as the default. The calibration curves of ANA-TA9 in the plasma and the brain were determined.

Aβ42 = conditions: also three Aβ fragment peptides, particularly Aβ11–29; cited from earlier work
Source text: Recently, we reported the proteolytic activity of the shorter synthetic peptides JAL-TA9 (YKGSGFRMI) and ANA-TA9 (SKGQAYRMI), derived from the Box A region of the Tob1 and ANA/BTG3 proteins. These peptides cleave Aβ42 and three Aβ fragment peptides, particularly Aβ11–29 originating from the central region, which is considered the core region of Aβ42 aggregation/oligomerization. We gave these peptides the general name Catalytide. Catalytides such as JAL-TA9 and ANA-TA9 are attractive candidate peptide drugs for a novel strategy for preventing and treating AD.

[3] = male, Wistar/ST, in vivo, inhaled or intranasal, 2 mg
[4] = male, Wistar/ST, in vivo, iv, 2 mg
[5] = male, Wistar/ST, in vivo, iv, 3 mg/animal

SKGQAYRMI [ANA-TA9]
bioavailability ([1]; male, Wistar/ST, plasma, inhaled or intranasal, i.n. 2 mg, dose-normalized i.n. AUC divided by normalized AUC after i.v. infusion, mean ± S.E. of three experiments, read-out: F (bioavailability), i.n.): 36 ± 4.65%
Cmax [1, 3]: 863 ± 187 ng/mL
Tmax [1, 3]: 1 min
half-life [1, 4]: < 1 min
level at 0.5 min [1, 4]: 575 ± 26 ng/mL
level at 1 min [1, 4]: 111 ± 10 ng/mL
AUC [1, 5]: 215 ng·h/mL
clearance [1, 5]: 260 ± 13.8 mL/min
level at 0.25 h ([1]; male, Wistar/ST, in vivo, iv, 3 mg/rat): 172 ± 121 ng/mL
AUC, i.n. ([1]; i.n. 2 mg (20 μL of 100 mg/mL PBS solution), plasma, trapezoidal with extrapolation, mean ± S.E. of three experiments): 3.10 ± 0.782 µg·min/mL
plasma concentration at 20 min (after end of i.v. infusion) ([1]; in vivo, iv): below the limit of detection
initial concentration in the whole blood ([2]; rat whole blood (heparinized), 10 μL ANA-TA9 solution added to 90 μL, 37 °C, time 0, LC/MS, three experiments): 80 µg/mL
concentration of ANA-TA9 in the whole blood 5 min after the start of the incubation ([2]; rat whole blood, 10 μL ANA-TA9 solution added to 90 μL, 37 °C, 5 min, LC/MS, three experiments): 20000 ng/mL
initial concentration in the whole blood, % of the expected value ([2]; rat whole blood, time 0, LC/MS): 80%
cleavage of Aβ42 (proteolytic activity) (Aβ42): cleave Aβ42
